Key:
Format in all cases: in vivo
[1] = test system: rats with hemorrhagic stroke; assay: Hemorrhagic stroke: reproduction of passive avoidance response; conditions: Nimodipin at 01.mg/kg
From the text: White nondescript male rats with body weight 200-250 g, which lived in vivarium and had feed (standard palletized feed) and water ad libitum, with natural alternation of day and night, were used in the experiments. Hemorrhagic stroke (local cerebral hemorrhage) was simulated according to method by A. N. Makarenko et al. (Method of local hemorrhage simulation I various structures of the brain in experimental animals. Journal Visshei Nervnoy Deyatelnosti—Journal of Higher Nervous Activities, 2002, v. 52, No 6, p. 765-768). In nembutal-anesthetized rats (40 mg/kg, i.m.) destruction of the brain tissue in capsule interna area was made with the use of special device (mandarin-knife) followed by application of blood (0.02-0.03 ml) taken from under the rat's tongue to the damaged area (within 2-3 minutes). False-operated animals underwent scalping and craniotomy. The animals were divided into 5 groups: intact rats, false-operated rats, animals with hemorrhagic stroke received nooglutyl at 20 mg/kg, and animals with hemorrhagic stroke received Compound I at 20 mg/kg. Effects were recorded within 24 hours and 14 days after the surgery. Learning ability and memory of the rats was examined in the model of passive avoidance response (PAR, Passive Avoidance supplied by Lafayette Instrument Co., USA). To determine neurological deficit in the animals Stroke-index McGrow scale modified by I. V. Gannushkina (Functional architectonics of the brain, Moscow, Medicina, 1977, 224 p.) was used. The severity of the condition was determined by the sum of the points. The number of rats with mild symptoms up to 2.5 points of Stroke-index scale (apathy, weakness of the extremities, unilateral semiptosis, tremor, circus movements) and severe manifestations of neurological disorders (3 to 10 points)—paresis of the extremities, palsy of low extremities, lateral position. The animals received single dose of nooglutyl and Compound I at the same dose 20 mg/kg intraperitoneally within 3-3.5 hours after the surgery. Controlled animals were treated with saline. At onset of the experiment each group comprised 15-20 animals. Mortality of the rats was recorded throughout the observation period (14 days). Statistical analysis was made using parametrical and non-parametrical methods and Biostat software. Nimodipin administered at 01.mg/kg according to above scheme was considered as a standard.

[2] = test system: mice exposed to hypoxia in hermovolume; assay: Hypoxia with hypercapnia in hermovolume
Method: (§1) White nondescript male mice with body weight 22-28 g were used in the experiments. Each dose level was studied in 10 animals. Control animals received equivalent volume of distilled water. Nooglutyl was used as reference agent. Study compounds were administered intraperitoneally 40 minutes before the experiment.
(§2) Acute hypobaric hypoxia was simulated in flow-exhaust chamber. Pressure was measured with altimeter, and elevation speed with variometer. The animals were “elevated” at the speed 20 m/s to the stage at 11000 m. The exposure lasted 10 minutes. Then the animals were mover down to the baseline level for 5 minutes. Hypoxia with hypercapnia in hermovolume was created by placement of the animal into 200 ml hermetically sealed glass vessels. Life period of the animals under hypoxic conditions was recorded. Each group comprised 10 animals.

rats with amnesia = assay: Antiamnestic activity: passive avoidance response (PAR) with amnesia by maximum electric shock; conditions: rats with electric shock amnesia, 24 hours after learning
Method: White nondescript male rats with body weight 250-280 g were used in the experiments. Each dose level was studied in 10 animals. Control animals received equivalent volume of distilled water. Nooglutyl was used as reference agent. Study compounds were administered intraperitoneally 40 minutes before the experiment. Experiment was carried out on the standard automated unit for passive avoidance response (Passive Avoidance) supplied by Lafayette Instrument Co., (USA) (Ader et al. Retention of a passive avoidance response as a function of the intensity and duration of electric shock. Psycho Sci. 1972, v. 26, p. 125-128; Voronina T. A. et al. “Textbook for Experimental (Preclinical Study) of novel pharmacological compounds”. Moscow, Medicina. 2005, p. 253-263 and 308-320). The unit was designed as small platform situated 1 m above the floor, which was illuminated with special lamp, and dark chamber with electrode floor connected with the platform. The rat was placed on illuminated platform in front of the entry to the dark chamber with its tail directed to the entry; the animal preferred dark chamber and quickly ran into it. In the dark chamber the animal received single pain stimulus with electric current (0.45 mA) and memorized that it was dangerous to enter dark chamber. Duration of the stimulus was determined from the running out of the animal from the dark chamber. To achieve amnesia maximum electric shock was used (50 Hz, 0.2 sec), which was made through corneal electrodes immediately after learning. Electric shock caused obliteration of the memory trace. Test for reproduction of passive avoidance response (PAR) (for retention of memory trace) was performed 24 hours after learning session and electric shock. The animal was placed on illuminated platform once again, and time of the presence on illuminated platform and dangerous dark chamber (no current was conducted to the floor during reproduction of PAR).
Control trained animals with reproduction of PAR without electric shock preferred to stay on illuminated platform. Obliteration of training with electric shock causes amnesia in the animals; as a result, the animals with short latent period enter dark chamber and stay there considerably longer than animals without amnesia (Table 2).

[3] = test system: mice exposed to hypobaric hypoxia; assay: Acute hypobaric hypoxia in flow-exhaust chamber
Method: as §1, §2

mice SAM P 10 = assay: Antidepressant activity: forced swimming in mice SAM; conditions: 10 mg/kg, first 6 minutes of forced swimming
Method: Exp. Gerontolol. 1997, […]. et al. Age-related deterioration in conditional avoidance task in the SAM-P/10 mouse, an animal model of spontaneous brain atrophy. Brain Res., 1993, v. 608, p. 266-272). To assess depressive condition the method of forced swimming was used (Porsolt R. D. et al., Behavioral despair in rats: a new model sensitive to antidepressant treatment. Europ. J. […] The mice were placed into cylinder 10 cm in diameter and 25 cm height. Cylinder was filled with water by 1⁄3 (27° C.). After unsuccessful attempts to get out of the water the animals have typical immovable posture, which is regarded as manifestation of “despair”.

[4] = PAR reproduction within 24 hours
[5] = PAR reproduction within 14 days
[6] = 30 mg/kg intraperitoneally 40 minutes before the experiment
[7] = 60 mg/kg intraperitoneally 40 minutes before the experiment
[8] = 120 mg/kg intraperitoneally 40 minutes before the experiment

COCCOC(=O)C1=C(C)NC(C)=C(C(=O)OC(C)C)C1c1cccc([N+](=O)[O-])c1 (centres unmarked) [Nimodipin]
Latent period of entry to dark chamber (c) [1, 4]: 123.7 ± 19.6 c | Number of animals, which did not enter dark chamber (%) [1, 4]: 58% | Latent period of entry to dark chamber (c) [1, 5]: 77.5 ± 32.8 c | Number of animals, which did not enter dark chamber (%) [1, 5]: 33$ %

O=C([O-])CC[C@H](NC(=O)c1cncc(O)c1)C(=O)[O-].[K+].[K+] [Compound III, di-K salt of N-(5-hydroxynicotinoyl)-L-glutamic acid]
Life interval of mice (minutes) exposed to hypoxia in hermovolume [2, 6]: 14.2 ± 0.39 min | Life interval of mice (minutes) exposed to hypoxia in hermovolume [2, 7]: 15.9 ± 0.45 min | Life interval of mice (minutes) exposed to hypoxia in hermovolume [2, 8]: 17.4 ± 0.65 min | Time of presence of animals while PAR reproduction (seconds) in the dark chamber (rats with amnesia; 25 mg/kg intraperitoneally): 70.7 ± 9.4 s | Time of presence of animals while PAR reproduction (seconds) on the illuminated platform (rats with amnesia; 25 mg/kg intraperitoneally): 49.3 ± 10.1 s | Time of presence of animals while PAR reproduction (seconds) in the dark chamber (rats with amnesia; 50 mg/kg intraperitoneally): 68.6 ± 7.1 s | Time of presence of animals while PAR reproduction (seconds) on the illuminated platform (rats with amnesia; 50 mg/kg intraperitoneally): 51.4 ± 9.8 s | Life interval of mice (minutes) exposed to hypobaric hypoxia [3, 6]: 3.91 ± 0.63 min | Life interval of mice (minutes) exposed to hypobaric hypoxia [3, 7]: 5.52 ± 0.54 min

CN(C)CCC=C1c2ccccc2CCc2ccccc21 [Amitryptilin, reference compound]
Period of active behaviour (mice SAM P 10): 225.10 ± 25.19 s

O=C([O-])CC[C@H](NC(=O)c1cncc(O)c1)C(=O)[O-].[Na+].[Na+] [Compound II, di-Na salt of N-(5-hydroxynicotinoyl)-L-glutamic acid]
Life interval of mice (minutes) exposed to hypoxia in hermovolume [2, 6]: 14.1 ± 0.71 min | Life interval of mice (minutes) exposed to hypoxia in hermovolume [2, 7]: 16.3 ± 0.64 min | Life interval of mice (minutes) exposed to hypoxia in hermovolume [2, 8]: 17.8 ± 0.69 min | Time of presence of animals while PAR reproduction (seconds) in the dark chamber (rats with amnesia; 25 mg/kg intraperitoneally): 78.7 ± 12.3 s | Time of presence of animals while PAR reproduction (seconds) on the illuminated platform (rats with amnesia; 25 mg/kg intraperitoneally): 41.3 ± 11.6 s | Time of presence of animals while PAR reproduction (seconds) in the dark chamber (rats with amnesia; 50 mg/kg intraperitoneally): 67.5 ± 15.1 s | Time of presence of animals while PAR reproduction (seconds) on the illuminated platform (rats with amnesia; 50 mg/kg intraperitoneally): 52.5 ± 12.3 s | Life interval of mice (minutes) exposed to hypobaric hypoxia [3, 6]: 6.51 ± 0.82 min | Life interval of mice (minutes) exposed to hypobaric hypoxia [3, 7]: 5.95 ± 0.84 min

Reference: US8030493B2, “Monovalent and divalent salts of N-(5-hydroxynicotinoil) -L-glutamic acid exhibiting psychotropic (antidepressant and anxiolytic), neuroprotective, geroprotective and cerebroprotective action” (Obschestvo S Ogranichennoy Otvetstvennostyu “Natsionalnaya …, priority 2006, dated 2011)
